This passage reports Ki results from patent publication US20210253562A1, “ACYLSUFONAMIDE COMPOUNDS USEFUL AS EP3 RECEPTOR ANTAGONISTS” (Janssen Pharmaceutica NV, priority 2018, published 2021).

Several values for one entry are separate records, joined by “and”; a condition that tells them apart may be missing. Equal values may be shown once.

The test concerns the target T1, EP3 membrane (EP3 receptor) (Homo sapiens, UniProt P43115).
T1 construct: purchased Millipore HTS092M
T1 sequence (P43115 1-390): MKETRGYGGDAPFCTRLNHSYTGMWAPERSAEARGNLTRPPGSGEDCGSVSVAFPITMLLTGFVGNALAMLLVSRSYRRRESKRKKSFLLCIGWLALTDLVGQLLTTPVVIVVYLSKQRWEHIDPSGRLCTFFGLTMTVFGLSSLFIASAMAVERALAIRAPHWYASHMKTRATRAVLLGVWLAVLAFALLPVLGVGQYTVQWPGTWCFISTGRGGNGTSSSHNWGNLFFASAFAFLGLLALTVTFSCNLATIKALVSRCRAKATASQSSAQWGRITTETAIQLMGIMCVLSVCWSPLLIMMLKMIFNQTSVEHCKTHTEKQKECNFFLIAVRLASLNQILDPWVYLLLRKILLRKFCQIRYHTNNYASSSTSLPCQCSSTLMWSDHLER
Kind of test: [3H]-PGE2 binding; EP3 competition binding (SPA). As for the experimental part: Biological Example 1: [3H]-PGE2 Binding
EP3 competition binding was determined using the following materials and experimental conditions: • Beads=Perkin Elmer RPNQ0001 • [3H]PGE2=Perkin Elmer NET428025UC • 384-well plate=Perkin Elmer 6007290 • EP3 membrane=Millipore HTS092M • Membrane concentration=2 μg/well • Beads concentration=0.25 mg/well • [3H]-PGE2=2 nM; DMSO—0.1% • Binding buffer=50 mM Tris, 10 mM MgCl2, 1 mM EDTA, PH 7.4.
The reaction system was prepared by mixing 5 μl of unlabeled compound; 5 μl of diluted [3H]-PGE2; 5 μl of diluted membrane; and 15 μl of SPA beads dissolved in binding buffer (adding in the following sequence: Unlabeled compound, [3H]-PGE2, Membrane and Beads).
The binding buffer was removed from refrigeration (@ 4° C.) and allowed to warm to room temperature. Test compound (@ stock concentration of […] in DMSO) was serial dilutes (1:3) with 100% DMSO using Echo plate. Diluted test compound (30 nL) was dispensed to the 384-well assay plate (using Echo 550 Labcyte System). To each well was then added assay buffer (5 μl) and each well was spun. Beads were weighed out, dissolved in assay buffer to a concentration of 0.25 mg/15 μl. Original membrane was diluted with assay buffer to a concentration of 2 μg/5 μl. Original [3H]-PGE2 with diluted with assay buffer to a concentration of 12 nM. To each test well were then added diluted [3H]-PGE2 (5 μl), diluted membrane (5 μl), and dissolved beads (15 μl). The plate was equilibrated at room temperature on a plate shaker for 2 hours and then read with a TOPCOUNT scintillation plate reader. Results were analyzed using a Prism program with non-linear regression, one-site fit for Ki.
Take `Cc1nc(C)c(S(=O)(=O)NC(=O)NC/C(F)=C2\CCCc3cnn(Cc4ccc(Cl)cc4Cl)c32)s1` [Compound #158, (Z)—N-((2-(1-(2,4-Dichlorobenzyl)-1,4,5,6-tetrahydro-7H-indazol-7-ylidene)-2-fluoroethyl)carbamoyl)-2,4-dimethylthiazole-5-sulfonamide]: the Ki was 32 nM.

For `Cc1cc(S(=O)(=O)NC(=O)NC/C=C2\CCCc3cnn(-c4ccc(Cl)cc4Cl)c32)sc1Cl` [Compound #196, (E)-5-chloro-N-((2-(1-(2,4-dichlorophenyl)-1,4,5,6-tetrahydro-7H-indazol-7-ylidene)ethyl)carbamoyl)-4-methylthiophene-2-sulfonamide], the Ki is 1 nM.

`Cn1nccc1S(=O)(=O)NC(=O)NC/C(F)=C1\CCCc2cnn(Cc3ccc(Cl)cc3Cl)c21` [Compound #168, (Z)—N-((2-(1-(2,4-dichlorobenzyl)-1,4,5,6-tetrahydro-7H-indazol-7-ylidene)-2-fluoroethyl)carbamoyl)-1-methyl-1H-pyrazole-5-sulfonamide] registered a Ki of 232 nM.

`COc1nc2ccc(S(=O)(=O)NC(=O)NC/C(F)=C3\CCCc4cnn(Cc5ccc(Cl)cc5Cl)c43)cc2o1` [Compound #178, (Z)—N-((2-(1-(2,4-dichlorobenzyl)-1,4,5,6-tetrahydro-7H-indazol-7-ylidene)-2-fluoroethyl)carbamoyl)-2-methoxybenzo[d]oxazole-6-sulfonamide] came in with a Ki of 6 nM.

In turn, `Cc1cc(S(=O)(=O)NC(=O)NC/C(F)=C2\CCCc3[nH]nc(Cc4ccc(Cl)cc4Cl)c32)sc1Cl` [Compound #187, (Z)-5-chloro-N-((2-(3-(2,4-dichlorobenzyl)-1,5,6,7-tetrahydro-4H-indazol-4-ylidene)-2-fluoroethyl)carbamoyl)-4-methylthiophene-2-sulfonamide] had a Ki of 1 nM.

For the molecule `O=C(NC/C=C1\CCCc2cnn(Cc3ccc(Cl)cc3Cl)c21)NS(=O)(=O)c1ccc2[nH]c(=O)oc2c1` [Compound #176, (E)-N-((2-(1-(2,4-dichlorobenzyl)-1,4,5,6-tetrahydro-7H-indazol-7-ylidene)ethyl)carbamoyl)-2-oxo-2,3-dihydrobenzo[d]oxazole-6-sulfonamide], the Ki came to 1 nM.

In the case of `CC(C)n1cc(S(=O)(=O)NC(=O)NC/C=C2\CCCc3cnn(Cc4ccc(Cl)cc4Cl)c32)cn1` [Compound #173, (E)-N-((2-(1-(2,4-dichlorobenzyl)-1,4,5,6-tetrahydro-7H-indazol-7-ylidene)ethyl)carbamoyl)-1-isopropyl-1H-pyrazole-4-sulfonamide], the affinity corresponds to a Ki of 59 nM.

As for `Cc1cc(S(=O)(=O)NC(=O)NC/C(F)=C2\COCc3cnn(Cc4ccc(Cl)cc4Cl)c32)sc1Cl` [Compound #166, (E)-5-chloro-N-((2-(1-(2,4-dichlorobenzyl)-1,4-dihydropyrano[4,3-c]pyrazol-7(6H)-ylidene)-2-fluoroethyl)carbamoyl)-4-methylthiophene-2-sulfonamide], the Ki was 6 nM and 7 nM.

On to `Cc1cc(S(=O)(=O)NC(=O)NC/C(F)=C2\COCc3[nH]nc(Cc4ccc(Cl)cc4Cl)c32)sc1Cl` [Compound #190, (E)-5-chloro-N-((2-(3-(2,4-dichlorobenzyl)-1,7-dihydropyrano[3,4-c]pyrazol-4(5H)-ylidene)-2-fluoroethyl)carbamoyl)-4-methylthiophene-2-sulfonamide], for which the Ki was found to be 1 nM.

Turning to `Cc1cc(Cl)ccc1Cc1nnn2c1/C(=C(\F)CNC(=O)NS(=O)(=O)c1cc(Cl)c(Cl)s1)CCC2` [Compound #167, (Z)-4,5-dichloro-N-((2-(3-(4-chloro-2-methylbenzyl)-6,7-dihydro-[1,2,3]triazolo[1,5-a]pyridin-4(5H)-ylidene)-2-fluoroethyl)carbamoyl)thiophene-2-sulfonamide], the affinity corresponds to a Ki of 7 nM.

`Cc1ncc(S(=O)(=O)NC(=O)NC/C(F)=C2\CCCc3cnn(Cc4ccc(Cl)cc4Cl)c32)cc1Cl` [Compound #197, (Z)-5-chloro-N-((2-(1-(2,4-dichlorobenzyl)-1,4,5,6-tetrahydro-7H-indazol-7-ylidene)-2-fluoroethyl)carbamoyl)-6-methylpyridine-3-sulfonamide] registered a Ki of 8 nM.

The molecule `CC(C)n1cc(S(=O)(=O)NC(=O)NC/C(F)=C2\CCCc3cnn(Cc4ccc(Cl)cc4Cl)c32)cn1` [Compound #170, (Z)—N-((2-(1-(2,4-dichlorobenzyl)-1,4,5,6-tetrahydro-7H-indazol-7-ylidene)-2-fluoroethyl)carbamoyl)-1-isopropyl-1H-pyrazole-4-sulfonamide] gave a Ki of 612 nM.

In turn, `Cc1c(S(=O)(=O)NC(=O)NC/C=C2\CCCc3cnn(Cc4ccc(Cl)cc4Cl)c32)cnn1C` [Compound #172, (E)-N-((2-(1-(2,4-dichlorobenzyl)-1,4,5,6-tetrahydro-7H-indazol-7-ylidene)ethyl)carbamoyl)-1,5-dimethyl-1H-pyrazole-4-sulfonamide] gave a Ki of 4 nM.

In turn, `Cc1cc(S(=O)(=O)NC(=O)NC/C=C2\CCCc3cnn(Cc4ccc(Cl)cc4Cl)c32)n(C)n1` [Compound #192, (E)-N-((2-(1-(2,4-dichlorobenzyl)-1,4,5,6-tetrahydro-7H-indazol-7-ylidene)ethyl)carbamoyl)-1,3-dimethyl-1H-pyrazole-5-sulfonamide] yielded a Ki of 6 nM.

Regarding `CC(=O)Nc1nc(C)c(S(=O)(=O)NC(=O)NC/C(F)=C2\CCCc3cnn(Cc4ccc(Cl)cc4Cl)c32)s1` [Compound #182, (Z)—N-(5-(N-((2-(1-(2,4-dichlorobenzyl)-1,4,5,6-tetrahydro-7H-indazol-7-ylidene)-2-fluoroethyl)carbamoyl)sulfamoyl)-4-methylthiazol-2-yl)acetamide], affinity was put at a Ki of 153 nM.

`COc1ccc(S(=O)(=O)NC(=O)NC/C(F)=C2\CCCc3cnn(Cc4ccc(Cl)cc4Cl)c32)cc1OC` [Compound #174, (Z)—N-((2-(1-(2,4-dichlorobenzyl)-1,4,5,6-tetrahydro-7H-indazol-7-ylidene)-2-fluoroethyl)carbamoyl)-3,4-dimethoxybenzenesulfonamide] registered a Ki of 149 nM.

Consider `Cn1ccc(S(=O)(=O)NC(=O)NC/C=C2\CCCc3cnn(Cc4ccc(Cl)cc4Cl)c32)n1` [Compound #153, (E)-N-((2-(1-(2,4-dichlorobenzyl)-1,4,5,6-tetrahydro-7H-indazol-7-ylidene)ethyl)carbamoyl)-1-methyl-1H-pyrazole-3-sulfonamide], for which the Ki was found to be 22 nM.

`COc1ccc(S(=O)(=O)NC(=O)NC/C(F)=C2\CCCc3cnn(Cc4ccc(Cl)cc4Cl)c32)cc1F` [Compound #159, (Z)—N-((2-(1-(2,4-Dichlorobenzyl)-1,4,5,6-tetrahydro-7H-indazol-7-ylidene)-2-fluoroethyl)carbamoyl)-3-fluoro-4-methoxybenzenesulfonamide] came in with a Ki of 22 nM.

With `Cc1cc(Cl)ccc1Cc1nnn2c1/C(=C(\F)CNC(=O)NS(=O)(=O)c1cc(C)c(Cl)s1)CCC2` [Compound #188, (Z)-5-chloro-N-((2-(3-(4-chloro-2-methylbenzyl)-6,7-dihydro-[1,2,3]triazolo[1,5-a]pyridin-4(5H)-ylidene)-2-fluoroethyl)carbamoyl)-4-methylthiophene-2-sulfonamide], affinity was put at a Ki of 8 nM.

One may read the Ki as the dissociation constant of the complex between target and ligand, obtained from inhibition or displacement. A higher Ki goes with lower affinity.
